Here are results for 138 compounds from the OPERA property sets (Mansouri et al. 2018).

Peptide text beside a SMILES is read from it.

`CN(C)C(=O)Nc1ccc(C2CCCCC2)cc1` registered a lipophilicity (logP) of 3.83.
For `CC(C)N(C)/N=N/c1ccc(C(N)=O)cc1`, the logP came out at 2.02.
`C=CCOc1ccccc1` yielded a log partition coefficient (logP) of 2.94.
`Nc1ncc(Cc2ccccc2)c(N)n1` showed a log partition coefficient (logP) of 1.58.
As for `Cc1nccnc1CC(C)C`, the log partition coefficient (logP) stood at 1.96.
The compound `CN(C)C(=O)OCc1ccc(C#N)cc1` had a logP of 1.67.
The same measure for `Nc1nncc2ccccc12`: 0.82.
The same measure for `CC(=O)Oc1cccc(F)c1`: 1.74.
`CCc1cc(NC(C)=O)cc(CC)c1O`: the lipophilicity (logP) is 1.87.
Take `CC(=O)OCC1CCC(n2cnc3c(=O)[nH]cnc32)O1` (stereo not drawn): the logP was -0.9.
The same measure for `COc1ccccc1OC`: 1.6; for `O=[N+]([O-])c1ccc(-c2ccccc2)cc1`: 3.82; for `CC(=O)c1ccccc1C(=O)O`: 0.81.
As to `Cc1nc(N)nc(N)c1C12CC3CC(CC(C3)C1)C2`, the log partition coefficient (logP) came out at 2.64.
For `On1nc2ccccc2n1` the value was 0.69; for `O=C(O)c1ccc([N+](=O)[O-])cc1Cl`, 2.03.
For `CN(C)C(N(C)C)=S(I)c1ccc(Br)cc1` (stereo not drawn), the logP came to 0.06.
For `Cc1ccc2cccc(O)c2n1` the value was 2.33.
`O=C(C=Cc1ccccc1)Nc1ccccc1` gave a lipophilicity (logP) of 3.61.
The same measure for `Fc1cccc(F)n1`: 1.17.
The same measure for `CCCCCCCCOC(=O)n1cnc(CC(NC(=O)C2CCC(=O)N2)C(=O)N2CCCC2C(N)=O)c1` (stereo not drawn): 1.82.
As to `OCc1ccccc1O`, the lipophilicity (logP) was found to be 0.73.
For `CNC(=O)Oc1cc(Cl)ccc1Cl` the value was 2.44; for `CC(C)(O)C(=O)O`, -0.36; for `NC(=O)c1ccc(C(F)(F)F)cc1`, 1.71.
The same measure for `COP(=S)(NC(C)C)Oc1ccc(Cl)cc1Cl` (stereo not drawn): 4.3.
Consider `CCCCOc1ccc(OC(=O)NC)cc1`, for which the logP came out at 2.86.
The same measure for `NC(=O)c1ccc(N)cc1`: -0.41; for `CCSC(=O)N1CCCCCC1`: 3.21.
For `NC(=O)Cn1ccnc1[N+](=O)[O-]` the value was -1.22; for `Cc1cc(NC(N)=O)ccc1Br`, 2.49; for `NCCCCC(=O)O`, -2.63.
For the compound `CC(C)(C)C(=O)Nc1ccccc1`, the logP was 1.99.
The same measure for `FC(F)(F)Cl`: 1.65; for `CCN(CC)CC(O)c1ccccc1` (stereo not drawn): 2.02.
The same measure for `N#CC#N`: 0.07; for `O=Cc1ccc([N+](=O)[O-])o1`: 1.01; for `CC(=O)c1ccccc1O`: 1.92.
For `COc1cccc(N(C)C(=S)Oc2cccc(C(C)(C)C)c2)n1` the value was 5.18; for `CCOC(=O)CNC(=O)CNC(=O)CCCCSc1ncnc2nc[nH]c12`, 0.5; for `NNC(=O)c1ccccc1[N+](=O)[O-]`, -0.54.
`CC(C)C(N)C(=O)O` (stereo not drawn): the logP was -2.26.
For `CC(=O)Oc1cccc(Cl)c1` the value was 2.32; for `CCOP(=S)(OCC)Oc1nc(Cl)n(C(C)C)n1`, 3.82.
The same measure for `CS(=O)(=O)Nc1ccc(Cl)cc1`: 1.85; for `Cc1ccccc1OC(=O)c1ccc(N)cc1O`: 3.14; for `CC(=O)NCCCOc1cccc(CN2CCCCC2)c1`: 2.15.
The same measure for `COC(=O)c1cccc(C(=O)O)c1`: 1.83; for `CCOC(=O)CC(=O)c1ccccc1`: 1.87.
Turning to `COc1ccccc1C(=O)NCCN(C)C`, the logP came out at 1.14.
`CCCCOC(C)=O` showed a logP of 1.78.
For `CCCCCCCCOc1cccc(NC(=O)OCCN2CCCCC2)c1` the value was 5.82; for `CNC(=O)Oc1ccc(SC)cc1`, 1.92.
`O=CNc1ccc([N+](=O)[O-])cc1` yielded a logP of 1.43.
For `O=C(O)Cc1c[nH]c2ccccc12` the value was 1.41; for `COc1cccc2c1C(=N)c1c(O)c3c(c(O)c1C2=O)CC(O)(C(O)CO)CC3OC1CC(N2CCOCC2)C(O)C(C)O1` (stereo not drawn), 1.43; for `CC1(C)Cc2cccc(O)c2O1`, 2.08.
The compound `CC1=Nc2ccc(Cl)cc2S(=O)(=O)N1` had a logP of 1.2.
On to `CCCCC(=O)OCC(=O)C1(O)CCC2C3CCC4=CC(=O)CCC4(C)C3C(O)CC21C` (stereo not drawn), for which the logP came to 3.62.
In turn, `CCOP(=S)(OCC)SC(CCl)N1C(=O)c2ccccc2C1=O` (stereo not drawn) registered a logP of 4.69.
`O=C(O)c1cccc(I)c1`: the logP worked out at 3.13.
The compound `CN(C)C(=O)OCc1cccc(N(C)C)c1` gave a log partition coefficient (logP) of 2.28.
The same measure for `CC(C)C(=O)c1ccccc1`: 2.73.
For `Nc1ccn([C@@H]2C=C(CO)[C@@H](O)[C@H]2O)c(=O)n1` the value was -2.45.
Regarding `COC(=O)c1cc(O)c(O)c(O)c1`, the logP is 0.86.
The same measure for `Nc1ccc(Sc2ccc(N)cc2)cc1`: 2.18; for `Nc1cc(C(F)(F)F)ccc1Cl`: 3.06; for `CC(C)(Oc1ccccc1)C(=O)N[C@@H]1C(=O)N2[C@@H]1SC(C)(C)[C@@H]2C(=O)O`: 2.76.
The compound `OCC(O)CO` registered a logP of -1.76.
`FC(Cl)(Cl)Cl` displayed a lipophilicity (logP) of 2.53.
`CCC(C)[N+](=O)[O-]` (stereo not drawn) had a log partition coefficient (logP) of 1.2.
The compound `O=P1(N(CCCl)CCCl)NCCCO1` (stereo not drawn) yielded a lipophilicity (logP) of 0.63.
As to `CCCCCOC(=O)c1ccc(S(N)(=O)=O)cc1`, the lipophilicity (logP) was 2.71.
The compound `OCc1ccc(Cl)cc1` displayed a logP of 1.96.
`Cc1c2ccccc2c(C)c2c1ccc1ccccc12` had a logP of 5.8.
For `CNC(C)=O` the value was -1.05.
The same measure for `N[C@@H](CS)C(=O)O`: -2.49; for `c1ccc(P(c2ccccc2)c2ccccc2)cc1`: 5.69; for `CC(=O)c1ccc2ncccc2c1`: 1.58.
For `Cc1c(NC(=O)C(C)N(C)C)c(=O)n(-c2ccccc2)n1C` (stereo not drawn) the value was -0.05; for `COCc1ccc([N+](=O)[O-])o1`, 0.89; for `CCC(N)=O`, -0.66.
As to `O=C(O)CS`, the logP turned out to be 0.09.
Take `CN[C@H]1CCc2cc(OC)c(OC)c(OC)c2-c2ccc(OC)c(=O)cc21`: the logP was found to be 1.37.
In turn, `CC(=O)Nc1cccc(OCC(=O)O)c1` had a logP of 0.48.
On to `CCOc1ccccc1`, for which the logP was determined as 2.51.
Take `CCN(CC)C(C)=O`: the log partition coefficient (logP) came to 0.34.
The same measure for `C=CCC`: 2.4.
For `Oc1ccc(Cc2ccc(O)cc2)cc1` the value was 2.91; for `N#Cc1c(Cl)cccc1Cl`, 2.74; for `CCc1cccs1`, 2.87.
`CCCCCCCc1nn[nH]n1` gave a logP of 2.01.
For `CC(=O)c1ccccc1Cl` the value was 2.09; for `CCOCCOC(=O)C(C#N)=C(CC)Nc1ccc(N)cc1`, 2.27; for `N#Cc1ccc(O)cc1`, […].
For `COCC1COC(Cn2cncn2)(c2ccc(Cl)cc2Cl)O1` (stereo not drawn) the value was 2.21; for `CC(C(c1ccccc1)c1ccccc1)[N+](=O)[O-]` (stereo not drawn), 3.91; for `O=C(O)c1ccccc1I`, 2.4.
The same measure for `CC(=O)NCC(=O)N[C@@H](CC(C)C)C(=O)NCC(N)=O` (Ac-Gly-Leu-Gly-NH2): -1.23; for `O=C1CCC(N2C(=O)c3ccccc3C2=O)C(=O)N1` (stereo not drawn): 0.33; for `CCC12CC3CC(CC(N)(C3)C1)C2`: 3.4.
`CCCOP(=O)(OCCC)Oc1ccc(SC)cc1`: the logP was 3.67.
The same measure for `N#Cc1cccs1`: 1.27.
The compound `CC(=O)Nc1nccs1` yielded a logP of 0.76.
`CC(=O)C(=Cc1ccc(Cl)cc1)C(C)=O` had a logP of 2.32.
Compound `ClCc1ccc(Cl)cc1Cl` returned a logP of 3.82.
`CCCC(=O)OCC(O)CO` (stereo not drawn) returned a logP of -0.17.
For `O=[N+]([O-])c1ncn(CC(O)CCl)n1` (stereo not drawn) the value was 0.05; for `CNc1nc(C)nc2c1ncn2[C@@H]1O[C@H](CO)C[C@@H]1F`, 0.64; for `CC(=Cc1ccccc1)[N+](=O)[O-]`, 2.52.
The same measure for `COc1cccc(C(=O)N(C)C)c1`: 1; for `O=Cc1ccc2ccccc2n1`: 2.14.
The same measure for `CC(=O)N[C@@H](CCC(N)=O)C(=O)N[C@@H](Cc1ccccc1)C(N)=O` (Ac-Gln-Phe-NH2): -1.14.
The compound `O=C(Cn1cnc([N+](=O)[O-])n1)NCCO` registered a logP of -1.59.
The same measure for `CN(C)O`: -1.15.
Consider `CCCOc1cccc(C=C(C(=O)OCC)C(=O)OCC)c1`, for which the logP stood at 4.
Take `COC1=C(OC)C(=O)C(C)=C(C)C1=O`: the logP stood at 1.26.
Take `CNC(=O)Oc1ccc(C(C)=O)cc1`: the logP stood at 1.01.
Turning to `CC(=O)Nc1cccc2ncccc12`, the logP is 0.71.
For `CCCCCCOc1ccc(NC(=O)OCCN2CCCCC2)cc1` the value was 5.41; for `CCOCc1ccccc1NC(=O)OCCN1CCCCC1`, 2.72.
For `COc1ccc(CC(=O)O)cc1`, the logP is 1.42.
The same measure for `O=c1cccc[nH]1`: -0.58; for `Nc1ccc(C(=O)Oc2ccccc2)c(O)c1`: 3.15.
The compound `CN1C(=O)c2ccccc2C1=O` yielded a logP of 1.31.
Turning to `CC1=C(C)C(=O)C(C)=C(C)C1=O`, the lipophilicity (logP) came out at 2.23.
For `CCCCOC(=O)c1ccccc1` the value was 3.84.
Take `COP(=O)(C=C(Cl)Cl)OC`: the log partition coefficient (logP) was 1.4.
Consider `CCCS(=O)(=O)CCn1c([N+](=O)[O-])cnc1C`, for which the log partition coefficient (logP) turned out to be 0.23.
The same measure for `O=C(NCCN1CCC(O)(c2ccc(Cl)cc2)CC1)c1ccc(F)cc1`: 2.85; for `S=C1CCCCCN1`: 0.75.
For `C=CC(=O)OCC(C)C` the value was 2.22; for `Oc1ccc(N=C=S)cc1`, 2.74; for `Nc1ccc(S(=O)(=O)Nc2ncccn2)cc1`, -0.09.
The compound `NC(=O)CCCc1ccncc1` showed a lipophilicity (logP) of -0.09.
The same measure for `Nc1nc(C=Cc2ccc([N+](=O)[O-])o2)no1`: 1.3; for `c1ccc2c(c1)ccc1ncccc12`: 3.43; for `CC1CN1C1=C(F)C(=O)C(N2CC2C)=C(F)C1=O` (stereo not drawn): 1.61.

Broadly, the logP is a log measure of how a compound divides between an organic and an aqueous phase.
